Results reported in patent publication US8680275B2, “Fused heterocyclic compounds as orexin receptor modulators” (Janssen Pharmaceutica NV, priority 2009, dated 2014).

How the values were obtained:
[1] = molecular target: human orexin 1 receptor (Homo sapiens (Human), UniProt O43613); experiment: Human orexin 1 receptor radioligand binding ([3H]-SB674042 competition); conditions: CHO cells stably expressing human orexin 1 receptor; [3H]-SB674042 4 nM final; read-out: OR-1 Ki
Outline: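 CHO cells stably expressing human OX1R incubated 60 min at room temperature with [3H]-SB674042 and compounds (7 concentrations, 0.1 nM–10 μM; DMSO ≤0.1%) in PBS. Nonspecific binding defined with 10 μM of a reference urea antagonist; bound radioactivity measured by filtration and scintillation counting.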

[2] = molecular target: human orexin-2 receptor (Homo sapiens (Human), UniProt O43614); experiment: Human orexin 2 receptor radioligand binding ([3H]-EMPA competition); conditions: HEK293 cells stably expressing human orexin-2 receptor; [3H]-EMPA 5 nM final; read-out: OR-2 Ki
Sequence of human orexin-2 receptor (O43614 whole entry): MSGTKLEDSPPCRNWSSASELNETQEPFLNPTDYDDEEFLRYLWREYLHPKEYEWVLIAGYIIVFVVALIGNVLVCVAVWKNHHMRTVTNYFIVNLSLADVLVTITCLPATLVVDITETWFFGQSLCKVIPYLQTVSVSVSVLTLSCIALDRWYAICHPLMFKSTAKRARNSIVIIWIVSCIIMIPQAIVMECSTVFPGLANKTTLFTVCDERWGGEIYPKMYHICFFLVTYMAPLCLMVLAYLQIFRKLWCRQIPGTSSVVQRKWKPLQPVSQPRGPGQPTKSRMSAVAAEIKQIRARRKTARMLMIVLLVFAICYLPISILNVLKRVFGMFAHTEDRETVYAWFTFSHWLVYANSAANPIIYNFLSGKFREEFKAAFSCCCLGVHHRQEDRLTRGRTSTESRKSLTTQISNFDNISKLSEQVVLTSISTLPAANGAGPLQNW
Outline: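 Competition binding on HEK293 cells stably expressing human orexin-2 receptor, using 5 nM final [3H]-EMPA in PBS, compounds 0.1 nM to 10 μM (DMSO ≤0.1%). 60 min at room temperature, then filtration and scintillation counting; nonspecific binding defined with 10 μM of a reference antagonist.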

Sequence of human orexin 1 receptor (O43613 whole entry): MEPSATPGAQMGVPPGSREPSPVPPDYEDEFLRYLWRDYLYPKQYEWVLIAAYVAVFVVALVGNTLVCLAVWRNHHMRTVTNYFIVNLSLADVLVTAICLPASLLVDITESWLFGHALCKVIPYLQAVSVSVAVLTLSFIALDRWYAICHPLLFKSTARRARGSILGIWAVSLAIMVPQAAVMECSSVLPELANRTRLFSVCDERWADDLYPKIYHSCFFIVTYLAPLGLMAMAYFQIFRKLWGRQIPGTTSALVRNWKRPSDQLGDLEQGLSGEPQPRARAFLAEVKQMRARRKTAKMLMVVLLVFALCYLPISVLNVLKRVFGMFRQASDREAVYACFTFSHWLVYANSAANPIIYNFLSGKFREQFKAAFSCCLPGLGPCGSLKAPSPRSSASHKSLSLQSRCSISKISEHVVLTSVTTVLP

| Compound | Ki [1] [µM] | Ki [2] [µM] |
| --- | --- | --- |
| Cc1onc(-c2ccccc2)c1C(=O)N1CC[C@H]2CN(c3ccnc(-c4ccccc4)n3)[C@H]2C1 [Example 197, (5-Methyl-3-phenylisoxazol-4-yl)((1R,6S)-8-(2-phenylpyrimidin-4-yl)-3,8-diazabicyclo[4.2.0]octan-3-yl)methanone] | 2.6 | 3.1 |
| Cc1nc(N2C[C@@H]3CCN(C(=O)c4ccccc4-n4nccn4)C[C@@H]32)nc(C)c1C [Example 270, (1R,6S)-3-{[2-(2H-1,2,3-Triazol-2-yl)phenyl]carbonyl}-8-(4,5,6-trimethylpyrimidin-2-yl)-3,8-diazabicyclo[4.2.0]octane] | 0.016 | 0.011 |
